This data set in a line: clinical. To be noted: for Percent absorption / Fa at 4 h / Fa at 8 h: human, in vivo, topical or ocular; for Fa at 4 h / Fa at 8 h: Percent absorption. The method, then: An experiment was carried out on 7 subjects who were healthy male adults, 25-39 years old and weighing 50-63 kg each, as mentioned hereinbelow.
The plasters and adhesive tapes so attached to the skin sites were peeled 0 hour, 4 hours and 8 hours after the application and then inserted into 15 ml test tubes, respectively, after which the test tubes were each incorporated with 5 ml of acetone, shaken lightly and allowed to stand overnight at room temperature. […] After the distillation-off of an excess of the diazomethane and ether, the residue so methylated was dissolved in 1 ml of a solution of the internal reference substance in acetone and meansured for absorbability and amount absorbed by means of GC-MF under the conditions as shown in Table 10.
The absorbency and amount absorbed were calculated from the following formulae: [formula]

Setting [1] is: 1% plaster, […] 1.4 cm, 4 hr, mean ± S.E.
The mark [2] stands for this setting: 1% plaster, […] 1.4 cm, 8 hr, mean ± S.E.
[3] abbreviates: 3% plaster, […] 1.4 cm, 4 hr, mean ± S.E.
Setting [4] is: 3% plaster, […] 1.4 cm, 8 hr, mean ± S.E.

These results are taken from patent publication US4455146A, “Novel plasters” (Hisamitsu Pharmaceutical Co., Ltd., priority 1979, dated 1984).

As for `CC(C(=O)O)c1ccc(-c2ccccc2)c(F)c1` (stereo not shown) [Flurbiprofen], the Fa at 4 h amounted to 5.53% and the Fa at 8 h was found to be 6.54 ± 0.99%. Under setting [1], the Amount absorption is 9.05 µg. Besides, the Amount absorption under setting [2] came to 10.70 ± 1.61 µg. Also, the Amount absorption under setting [3] was found to be 41.19 µg. Under setting [4], this compound registered an Amount absorption of 49.56 ± 6.92 µg. This compound also returned a Percent absorption (4 h) of 6.98%. The compound further registered a Percent absorption (8 h) of 8.40 ± 1.17%.
`COc1ccc2c(c1)c(CC(=O)O)c(C)n2C(=O)c1ccc(Cl)cc1` [Indomethacin]: the Amount absorption came out at 2.30 µg under setting [1], 4.92 ± 1.16 µg under setting [2], 16.67 µg under setting [3] and 20.21 ± 2.13 µg under setting [4]. The same compound came in with a Fa at 4 h under setting [1] of 1.27% and a Fa at 4 h under setting [3] of 3.52%. The Fa at 8 h is, setting by setting: under setting [2], 2.71 ± 0.64%; under setting [4], 4.28 ± 0.45%.
